{"source": "paper PMC9031611", "about": "(Journal of Clinical Medicine, 2022)", "key": {"[1]": {"set-up": "method as in PMID 26100670", "conditions": "in vitro and in vivo studies; cited from earlier work"}, "[2]": {"conditions": "cited from earlier work"}, "[3]": {"assay": "Solubility of MG005 and MG010", "type": "physicochemical", "conditions": "in words"}, "[4]": {"conditions": "cited from earlier work", "remark": "listed apart in the source"}, "[5]": {"assay": "Pharmacokinetics assessments in phase I patients (plasma, steady state)", "conditions": "for Tmax,ss: median (range); for AUC: AUC0→τ,ss", "description": "This was a dual-agent, open-label, phase I study. […] We conducted the trial following the 3 + 3 dose-escalation phase I clinical trial design. […] There were three cohorts and at least […] were enrolled for each dose level. No intra-patient dose escalation was allowed, and each patient’s first dose was at least 5 days apart from the next patient’s first dose. DLTs were assessed during the initial 8-week and 4-week treatment periods for Cohort 1 and Cohorts 2/3, respectively. The criteria for DLTs are listed in Supplementary Table S1. […] The enrolled patients were treated until disease progression.\nA plasma concentration–time profile for MG005 as a single agent was established, and PK parameters in terms of the following were also determined: peak plasma concentration (Cmax)/at steady state (Cmax,ss); time to reach peak concentration (Tmax)/at steady state (Tmax,ss); AUC in 1 dosing interval at steady state (AUC0→τ,ss)."}, "[6]": {"conditions": "Day 28, Cohort 1: 750 mg QD MG005 plus 200 mg QD sorafenib, mean ± SD"}, "[7]": {"conditions": "Day 28, Cohort 2: 1500 mg QD MG005 plus 200 mg QD sorafenib, mean ± SD"}, "[8]": {"conditions": "Day 28, Cohort 2: 1500 mg QD MG005 plus 200 mg QD sorafenib"}, "[9]": {"conditions": "Day 28, Cohort 3: 750 mg BID MG005 plus 200 mg QD sorafenib, mean ± SD"}}, "note": "Read-outs that look alike come from different tables or passages of the source."}
{"compound": "O=C1Nc2ccc(I)cc2/C1=C/c1cc(Br)c(O)c(Br)c1", "note": "[GW5074]", "values": [{"measurement": "mutagenicity and genotoxicity", "setting": "[1]", "value": "neither mutagenic nor genotoxic"}, {"measurement": "findings of repeated toxicity studies", "setting": "[2]; dog, in vivo", "value": "did not cause major abnormality except emesis and watery stool"}, {"measurement": "no-observed-adverse-effect-level (NOAEL)", "setting": "[2]; repeated dosing", "value": "highest dose levels tested"}, {"measurement": "solubility", "setting": "[3]", "value": "not satisfactory"}, {"measurement": "solubility", "setting": "[3]; listed as MG005", "value": "poor solubility"}, {"measurement": "findings of repeated toxicity studies", "setting": "[4]; rat, in vivo", "value": "did not cause major abnormality except emesis and watery stool"}, {"measurement": "no-observed-adverse-effect-level (NOAEL)", "setting": "[4]; repeated dosing", "value": "highest dose levels tested"}, {"measurement": "AUC0→τ,ss", "setting": "[5]; [6]", "value": "5.6399 ± 2.6759", "unit": "µg·h/mL"}, {"measurement": "Cmax,ss", "setting": "[5]; [6]", "value": "0.6856 ± 0.3354", "unit": "µg/mL"}, {"measurement": "Tmax,ss", "setting": "[5]; Day 28, Cohort 1: 750 mg QD MG005 plus 200 mg QD sorafenib", "value": "6.0 (5.0–6.0) Hr"}, {"measurement": "AUC0→τ,ss", "setting": "[5]; [7]", "value": "5.5537 ± 0.9502", "unit": "µg·h/mL"}, {"measurement": "Cmax,ss", "setting": "[5]; [7]", "value": "0.786 ± 0.18", "unit": "µg/mL"}, {"measurement": "Tmax,ss", "setting": "[5]; [8]", "value": "4.0 (2.1–4.1) Hr"}, {"measurement": "AUC0→τ,ss", "setting": "[5]; [9]", "value": "6.2496 ± 2.6196", "unit": "µg·h/mL"}, {"measurement": "Cmax,ss", "setting": "[5]; [9]", "value": "0.62 ± 0.3826", "unit": "µg/mL"}, {"measurement": "Tmax,ss", "setting": "[5]; Day 28, Cohort 3: 750 mg BID MG005 plus 200 mg QD sorafenib", "value": "14.0 (0.0–23.9) Hr"}, {"measurement": "bioavailability", "setting": "[5]; patients, oral", "value": "low bioavailability"}, {"measurement": "absorption", "setting": "[5]; patients, 750 mg QD to 1500 mg QD gave no significant increase in bioavailability", "value": "poor absorption"}, {"measurement": "half-life", "setting": "[5]; patients, compared to sorafenib", "value": "significantly shorter half-life when compared to sorafenib"}]}
{"compound": "CNC(=O)c1cc(Oc2ccc(NC(=O)Nc3ccc(Cl)c(C(F)(F)F)c3)cc2)ccn1", "note": "[sorafenib, reference compound]", "values": [{"measurement": "Tmax,ss", "setting": "[5]; [8]", "value": "8.0 (2.1–23.5) Hr"}, {"measurement": "AUC", "setting": "[5]; human, plasma, oral, Day 28, Cohort 1: 750 mg QD MG005 plus 200 mg QD sorafenib, mean ± SD", "value": 88.6, "unit": "µg·h/mL"}, {"measurement": "AUC", "setting": "[5]; human, plasma, oral, Day 28, Cohort 2: 1500 mg QD MG005 plus 200 mg QD sorafenib, mean ± SD", "value": 51.4, "unit": "µg·h/mL"}, {"measurement": "AUC", "setting": "[5]; human, plasma, oral, Day 28, Cohort 3: 750 mg BID MG005 plus 200 mg QD sorafenib, mean ± SD", "value": 30.6, "unit": "µg·h/mL"}, {"measurement": "Cmax", "setting": "[5]; human, plasma, oral, Cmax,ss, Day 28, Cohort 2: 1500 mg QD MG005 plus 200 mg QD sorafenib, mean ± SD", "value": "3.73 ± 1.53", "unit": "µg/mL"}]}
